For `CCS(=O)(=O)c1cc(C(F)(F)F)ccc1C(=O)Nc1oc(C(F)(F)F)cc1Br` [Compound 1-23, N-[3-bromo-5-(trifluoromethyl)furan-2-yl]-2-(ethylsulfonyl)-4-(trifluoromethyl)benzamide], which melting point is on record?
The melting point was 160 to 162 °C.
